ChEMBL document CHEMBL1201862, “PubChem BioAssay data set” (2004)
The source made the active and inactive calls. No rule for the calls is given here.

Tests used:
Format in all cases: functional
[1] = target: Macrophage-stimulating protein receptor (Homo sapiens, UniProt Q04912); assay: Navigating the Kinome. Panel member name: MST1R
[2] = target: Dual specificity mitogen-activated protein kinase kinase 2 (Homo sapiens, UniProt P36507); assay: Navigating the Kinome. Panel member name: MAP2K2
[3] = target: ALK tyrosine kinase receptor (Homo sapiens, UniProt Q9UM73);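 also: ALK tested as one member of a kinase panel screen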
ALK tyrosine kinase receptor, sequence (Q9UM73 whole entry): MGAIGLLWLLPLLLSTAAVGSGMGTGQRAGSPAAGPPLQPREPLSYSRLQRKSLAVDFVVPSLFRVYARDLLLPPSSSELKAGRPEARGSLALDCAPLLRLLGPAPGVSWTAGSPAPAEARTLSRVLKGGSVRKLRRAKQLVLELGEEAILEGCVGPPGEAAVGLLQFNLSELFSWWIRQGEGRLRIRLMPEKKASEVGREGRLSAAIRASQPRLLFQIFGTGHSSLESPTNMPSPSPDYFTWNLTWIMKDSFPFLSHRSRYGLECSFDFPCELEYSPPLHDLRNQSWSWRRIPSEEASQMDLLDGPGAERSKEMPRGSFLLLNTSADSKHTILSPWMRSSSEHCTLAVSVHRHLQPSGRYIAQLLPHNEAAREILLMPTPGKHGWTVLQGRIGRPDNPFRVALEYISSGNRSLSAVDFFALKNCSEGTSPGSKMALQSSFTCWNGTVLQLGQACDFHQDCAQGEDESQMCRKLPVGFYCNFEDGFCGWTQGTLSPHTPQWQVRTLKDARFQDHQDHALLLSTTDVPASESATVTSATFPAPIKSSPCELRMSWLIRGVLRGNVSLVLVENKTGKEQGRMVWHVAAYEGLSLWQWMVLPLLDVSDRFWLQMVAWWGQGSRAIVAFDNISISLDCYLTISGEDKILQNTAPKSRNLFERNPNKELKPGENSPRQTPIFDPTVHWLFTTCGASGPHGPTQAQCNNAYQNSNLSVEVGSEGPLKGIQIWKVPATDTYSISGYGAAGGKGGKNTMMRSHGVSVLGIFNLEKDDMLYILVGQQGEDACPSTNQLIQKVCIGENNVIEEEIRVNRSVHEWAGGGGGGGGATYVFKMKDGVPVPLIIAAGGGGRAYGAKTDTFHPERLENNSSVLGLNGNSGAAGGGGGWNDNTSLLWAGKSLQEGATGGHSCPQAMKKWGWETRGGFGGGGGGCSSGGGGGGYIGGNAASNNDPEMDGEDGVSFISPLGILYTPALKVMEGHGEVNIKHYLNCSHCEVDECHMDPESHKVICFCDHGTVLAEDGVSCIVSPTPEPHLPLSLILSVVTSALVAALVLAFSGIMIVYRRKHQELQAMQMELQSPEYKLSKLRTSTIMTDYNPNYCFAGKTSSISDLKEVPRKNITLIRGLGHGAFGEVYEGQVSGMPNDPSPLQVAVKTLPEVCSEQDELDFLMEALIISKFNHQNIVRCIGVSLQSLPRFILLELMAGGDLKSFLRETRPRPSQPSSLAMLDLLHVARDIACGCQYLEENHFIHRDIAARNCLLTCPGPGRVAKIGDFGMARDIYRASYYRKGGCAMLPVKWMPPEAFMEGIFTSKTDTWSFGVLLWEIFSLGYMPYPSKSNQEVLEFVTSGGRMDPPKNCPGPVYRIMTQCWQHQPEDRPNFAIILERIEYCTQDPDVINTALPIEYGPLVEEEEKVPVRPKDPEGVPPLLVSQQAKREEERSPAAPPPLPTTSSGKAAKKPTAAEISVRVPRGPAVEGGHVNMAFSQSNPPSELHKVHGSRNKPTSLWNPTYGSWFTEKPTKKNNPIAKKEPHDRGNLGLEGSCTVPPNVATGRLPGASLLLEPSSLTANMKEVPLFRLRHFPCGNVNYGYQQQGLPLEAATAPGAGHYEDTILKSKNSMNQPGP

[4] = target: T1, Serine/threonine-protein kinase TBK1 (Homo sapiens, UniProt Q9UHD2); assay: Navigating the Kinome. Panel member name: TBK1
T1 sequence (Q9UHD2 whole entry): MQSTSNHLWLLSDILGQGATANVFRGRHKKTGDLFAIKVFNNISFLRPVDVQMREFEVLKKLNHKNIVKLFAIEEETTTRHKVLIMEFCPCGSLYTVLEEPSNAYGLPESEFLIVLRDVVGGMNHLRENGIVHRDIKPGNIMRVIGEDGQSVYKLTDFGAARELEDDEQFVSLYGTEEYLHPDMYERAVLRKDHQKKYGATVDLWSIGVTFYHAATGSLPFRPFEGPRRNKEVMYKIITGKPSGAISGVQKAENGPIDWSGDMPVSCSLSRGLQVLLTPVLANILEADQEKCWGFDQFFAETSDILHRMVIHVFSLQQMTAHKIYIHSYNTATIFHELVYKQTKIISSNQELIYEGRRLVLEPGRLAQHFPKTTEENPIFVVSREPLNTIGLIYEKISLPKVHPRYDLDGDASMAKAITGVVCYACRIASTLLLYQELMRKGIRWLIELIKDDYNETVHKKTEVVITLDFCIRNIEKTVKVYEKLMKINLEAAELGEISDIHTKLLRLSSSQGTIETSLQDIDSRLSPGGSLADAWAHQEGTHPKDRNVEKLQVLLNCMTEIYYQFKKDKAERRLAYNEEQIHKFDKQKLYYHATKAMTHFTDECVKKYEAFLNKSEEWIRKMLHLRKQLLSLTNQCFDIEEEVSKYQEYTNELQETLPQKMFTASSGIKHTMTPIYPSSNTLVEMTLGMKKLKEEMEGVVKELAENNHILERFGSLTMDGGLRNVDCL

[5] = target: Mitogen-activated protein kinase 9 (Homo sapiens, UniProt P45984);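 also: value from a kinome panel profiling assay, MAPK9 panel entry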
Mitogen-activated protein kinase 9, sequence (P45984 whole entry): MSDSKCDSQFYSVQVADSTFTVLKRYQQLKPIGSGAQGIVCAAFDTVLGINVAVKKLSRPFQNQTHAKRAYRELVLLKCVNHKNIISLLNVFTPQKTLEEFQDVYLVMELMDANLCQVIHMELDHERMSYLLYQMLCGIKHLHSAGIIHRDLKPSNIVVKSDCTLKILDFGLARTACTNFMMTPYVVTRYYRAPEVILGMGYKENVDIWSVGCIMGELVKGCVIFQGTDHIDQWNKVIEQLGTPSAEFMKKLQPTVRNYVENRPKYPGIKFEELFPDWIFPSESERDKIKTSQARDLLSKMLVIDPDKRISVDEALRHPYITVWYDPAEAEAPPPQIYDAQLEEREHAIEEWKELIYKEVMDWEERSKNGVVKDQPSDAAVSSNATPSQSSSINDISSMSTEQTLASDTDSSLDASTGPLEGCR

[6] = target: T2, Tyrosine-protein kinase JAK3 (Homo sapiens, UniProt P52333)
T2 sequence (P52333 whole entry): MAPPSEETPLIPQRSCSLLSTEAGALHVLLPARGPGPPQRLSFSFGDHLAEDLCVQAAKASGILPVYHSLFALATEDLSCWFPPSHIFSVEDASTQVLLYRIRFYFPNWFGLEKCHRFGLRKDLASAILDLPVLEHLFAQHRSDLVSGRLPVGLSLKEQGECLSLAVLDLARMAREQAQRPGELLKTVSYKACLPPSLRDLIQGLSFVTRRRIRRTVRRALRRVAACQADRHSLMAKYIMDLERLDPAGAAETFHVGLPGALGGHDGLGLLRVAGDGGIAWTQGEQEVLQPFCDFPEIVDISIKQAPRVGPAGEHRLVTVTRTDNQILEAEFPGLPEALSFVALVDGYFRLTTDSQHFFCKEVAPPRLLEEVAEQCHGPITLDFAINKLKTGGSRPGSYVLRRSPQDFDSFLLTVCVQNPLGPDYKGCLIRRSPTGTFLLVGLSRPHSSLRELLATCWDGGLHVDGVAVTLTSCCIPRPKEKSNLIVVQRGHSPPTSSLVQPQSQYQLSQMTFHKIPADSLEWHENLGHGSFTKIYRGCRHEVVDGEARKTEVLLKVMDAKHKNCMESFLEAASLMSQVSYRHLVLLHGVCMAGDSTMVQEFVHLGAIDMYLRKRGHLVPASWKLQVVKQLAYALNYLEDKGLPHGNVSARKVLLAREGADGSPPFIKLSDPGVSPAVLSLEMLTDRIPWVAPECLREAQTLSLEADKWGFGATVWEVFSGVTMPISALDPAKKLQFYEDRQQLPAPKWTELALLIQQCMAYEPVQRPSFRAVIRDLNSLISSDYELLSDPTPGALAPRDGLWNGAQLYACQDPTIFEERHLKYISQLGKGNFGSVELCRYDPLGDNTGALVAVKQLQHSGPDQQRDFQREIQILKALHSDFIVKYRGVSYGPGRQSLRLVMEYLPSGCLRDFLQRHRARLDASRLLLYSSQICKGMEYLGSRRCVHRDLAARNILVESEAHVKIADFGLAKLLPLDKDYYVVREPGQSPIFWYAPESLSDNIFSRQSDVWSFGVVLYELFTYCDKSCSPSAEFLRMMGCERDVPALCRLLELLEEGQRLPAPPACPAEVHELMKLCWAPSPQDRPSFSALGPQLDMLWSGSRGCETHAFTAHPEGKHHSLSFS

[7] = target: High affinity nerve growth factor receptor (Homo sapiens, UniProt P04629);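 also: NTRK1 tested as one member of a kinome-wide profiling panel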
High affinity nerve growth factor receptor, sequence (P04629 whole entry): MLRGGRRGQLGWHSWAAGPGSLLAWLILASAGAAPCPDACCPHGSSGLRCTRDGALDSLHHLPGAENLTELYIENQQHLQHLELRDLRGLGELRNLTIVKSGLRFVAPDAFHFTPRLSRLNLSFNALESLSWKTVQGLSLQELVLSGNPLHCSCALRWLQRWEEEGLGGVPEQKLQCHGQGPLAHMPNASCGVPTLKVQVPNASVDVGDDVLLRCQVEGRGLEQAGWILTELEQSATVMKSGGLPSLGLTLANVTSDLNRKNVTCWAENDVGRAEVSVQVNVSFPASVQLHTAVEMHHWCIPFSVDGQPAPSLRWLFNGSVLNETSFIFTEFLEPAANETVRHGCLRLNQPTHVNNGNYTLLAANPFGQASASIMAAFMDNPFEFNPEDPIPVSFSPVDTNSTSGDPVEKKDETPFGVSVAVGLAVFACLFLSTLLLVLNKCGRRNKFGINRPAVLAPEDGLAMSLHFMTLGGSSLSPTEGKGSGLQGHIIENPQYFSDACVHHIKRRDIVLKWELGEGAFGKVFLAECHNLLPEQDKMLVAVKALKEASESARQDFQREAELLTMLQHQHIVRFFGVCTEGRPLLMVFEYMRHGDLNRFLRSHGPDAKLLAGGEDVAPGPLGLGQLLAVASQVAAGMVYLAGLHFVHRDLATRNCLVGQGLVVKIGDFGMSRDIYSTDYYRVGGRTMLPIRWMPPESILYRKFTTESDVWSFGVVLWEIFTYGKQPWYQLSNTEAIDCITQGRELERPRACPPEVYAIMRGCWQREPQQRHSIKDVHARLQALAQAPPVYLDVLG

Macrophage-stimulating protein receptor, sequence (Q04912 25-304 limits assumed): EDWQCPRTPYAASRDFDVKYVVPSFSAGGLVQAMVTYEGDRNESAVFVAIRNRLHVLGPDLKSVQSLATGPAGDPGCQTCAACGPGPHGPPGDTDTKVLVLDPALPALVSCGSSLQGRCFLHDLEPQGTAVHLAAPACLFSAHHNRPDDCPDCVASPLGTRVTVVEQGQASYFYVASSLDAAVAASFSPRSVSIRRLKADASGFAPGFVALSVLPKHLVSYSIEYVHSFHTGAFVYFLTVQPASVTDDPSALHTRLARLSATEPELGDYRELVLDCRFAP
Macrophage-stimulating protein receptor, sequence (Q04912 310-1400 limits assumed): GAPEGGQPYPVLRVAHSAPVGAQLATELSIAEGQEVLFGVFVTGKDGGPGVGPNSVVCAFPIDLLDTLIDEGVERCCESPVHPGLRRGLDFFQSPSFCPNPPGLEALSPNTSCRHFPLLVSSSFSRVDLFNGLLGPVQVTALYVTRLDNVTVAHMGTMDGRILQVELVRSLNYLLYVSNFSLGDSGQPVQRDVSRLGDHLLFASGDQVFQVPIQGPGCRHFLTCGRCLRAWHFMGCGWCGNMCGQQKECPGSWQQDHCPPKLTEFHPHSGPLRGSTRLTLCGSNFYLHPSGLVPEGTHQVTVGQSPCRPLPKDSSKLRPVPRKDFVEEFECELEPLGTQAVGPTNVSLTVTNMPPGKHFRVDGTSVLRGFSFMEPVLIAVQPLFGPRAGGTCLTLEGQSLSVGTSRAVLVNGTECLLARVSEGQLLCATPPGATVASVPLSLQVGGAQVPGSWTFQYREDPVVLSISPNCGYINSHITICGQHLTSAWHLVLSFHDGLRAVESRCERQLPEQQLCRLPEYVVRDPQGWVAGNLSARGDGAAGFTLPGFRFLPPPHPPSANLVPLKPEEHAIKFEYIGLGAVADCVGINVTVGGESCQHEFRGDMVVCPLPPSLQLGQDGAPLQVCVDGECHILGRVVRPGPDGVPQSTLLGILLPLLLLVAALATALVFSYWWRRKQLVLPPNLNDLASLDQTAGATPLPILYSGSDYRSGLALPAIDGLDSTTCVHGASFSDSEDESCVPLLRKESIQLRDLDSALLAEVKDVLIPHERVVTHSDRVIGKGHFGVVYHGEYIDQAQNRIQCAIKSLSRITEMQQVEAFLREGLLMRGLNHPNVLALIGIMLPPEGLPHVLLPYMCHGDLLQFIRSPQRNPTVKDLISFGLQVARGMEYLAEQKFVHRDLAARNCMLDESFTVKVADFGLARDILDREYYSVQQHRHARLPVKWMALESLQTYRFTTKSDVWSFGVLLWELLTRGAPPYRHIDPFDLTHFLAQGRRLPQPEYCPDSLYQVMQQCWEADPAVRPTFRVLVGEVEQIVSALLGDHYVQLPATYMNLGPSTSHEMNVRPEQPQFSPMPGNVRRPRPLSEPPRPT
Dual specificity mitogen-activated protein kinase kinase 2, sequence (P36507 whole entry): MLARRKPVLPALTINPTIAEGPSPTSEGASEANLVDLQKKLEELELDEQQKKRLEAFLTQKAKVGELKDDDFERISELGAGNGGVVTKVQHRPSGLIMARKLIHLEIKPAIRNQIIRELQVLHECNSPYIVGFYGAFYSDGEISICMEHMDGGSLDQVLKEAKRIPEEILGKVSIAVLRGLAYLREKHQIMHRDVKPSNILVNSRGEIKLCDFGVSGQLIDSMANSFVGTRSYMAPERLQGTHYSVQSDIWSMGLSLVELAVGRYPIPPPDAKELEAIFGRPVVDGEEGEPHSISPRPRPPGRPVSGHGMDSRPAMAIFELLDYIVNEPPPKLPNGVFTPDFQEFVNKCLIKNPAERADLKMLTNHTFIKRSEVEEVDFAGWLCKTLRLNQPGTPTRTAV

| SMILES | Ki [1] | Ki [2] | Ki [3] | Ki [4] | Ki [5] | Ki [6] | Ki [7] |
| --- | --- | --- | --- | --- | --- | --- | --- |
| O=c1[nH]c2cc(Br)cnc2[nH]1 | 63.1 µM (active) | 50.1 µM (active) | 63.1 µM (active) | 79.4 µM (active) | – | – | – |
| O=C(Nc1cccc(C(F)(F)F)n1)Nc1ccnc2cc(OC(F)F)ccc12 | > 3.98 µM (inactive) | > 3.98 µM (inactive) | > 6.31 µM (inactive) | > 3.16 µM (inactive) | > 3.98 µM (inactive) | > 5.01 µM (inactive) | > 3.16 µM (inactive) |
| O=C(Nc1cccc(C(F)(F)F)n1)Nc1ccnc2cc(Cl)ccc12 | > 3.98 µM (inactive) | > 3.98 µM (inactive) | > 6.31 µM (inactive) | > 3.16 µM (inactive) | > 3.98 µM (inactive) | 3.98 µM (active) | 2.51 µM (active) |
| CCC1CC(NS(=O)(=O)C2CC2)CC1c1ncc2cnc3[nH]ccc3n12 (stereo not given) | 2 µM (active) | > 3.98 µM (inactive) | 1 µM (active) | > 3.16 µM (inactive) | > 3.98 µM (inactive) | 0.00398 µM (active) | > 3.16 µM (inactive) |
